From patent publication US5851556A, “Use of a salt of an alkaline-earth metal as TNF-A or substance P inhibitor in a topical composition and composition obtained” (Societe L'Oreal S.A., priority 1995, dated 1998) come the findings set out here.

By IC50 is commonly meant the concentration needed to halve the response being measured.

One assay concerns TNF-alpha. The assay can be described thus: TNF-alpha secretion by human monocytes (U937 line) stimulated by phorbol ester (PMA). Type of assay: cell-based. Conditions: U937, PMA 10 nM, 48 hours; for % inhibition of TNF-alpha secretion induced by PMA: mean of 3 measurements. The procedure:
This test is performed on human monocytes (U937 line) stimulated by a phorbol ester (PMA) according to the method described by Schindler et al (Correlations and interactions in the production of interleukin-6 (IL-6), IL-1, and Tumor Necrosis Factor (TNF) in human blood mononuclear cells: IL-6 suppresses IL-1 and TNF. Blood 75: 40-47 (1990)).
The phorbol ester (PMA) naturally stimulates the synthesis and/or the secretion of TNF-alpha by human monocytes in culture.
The activity of the molecules is evaluated according to their ability to reduce or even eliminate this TNF-alpha secretion.
The cells (monocytes) are incubated in the presence of PMA at the concentration of 10 nM for 48 hours at 37° C. The quantities of TNF-alpha secreted are quantified by immuno-enzymatic assay ([…]) with the aid of commercially available kits.
Each molecule is tested at 3 different concentrations (10^-5, 10^-4 and 10^-3 M) and during each experiment, a reference molecule (dexamethasone) is studied at 7 concentrations as internal standard.
The results are expressed as percentage inhibition relative to the positive control (without test molecule) after subtracting the background noise. A recapitulative Table 3 groups together the mean inhibitory effects obtained with the compounds. (The results expressed in % inhibition; they are the mean of 3 measurements).

In another assay the test system is substance P. Briefly: release of substance P caused by antidromic stimulation of the sciatic nerve, visualized with Evans blue. The note with it: for % inhibition relative to the control / μg/ml of Evans blue: 1 μmol; for μg/ml of Evans blue: control vehicle 8.19 ± 0.83. Type of assay: in vivo. From the text: The test consisted in determining the activity of the various compounds on the release of substance P, caused by antidromic stimulation of the sciatic nerve. This release is visualized by staining with a dye (Evans blue). The greater the quantity of substance P released, the more intense the colour. In other words, the greater the inhibitory effect produced on this release by the substance P antagonist, the less intense the colour.

Turning to `C[C@@H]1C[C@H]2[C@@H]3CCC4=CC(=O)C=C[C@]4(C)[C@@]3(F)[C@@H](O)C[C@]2(C)[C@@]1(O)C(=O)CO` [dexamethasone, reference compound], the IC50 in the assay on TNF-alpha (Homo sapiens, U-937, read-out: IC50 (50% reduction in the secretion, caused by PMA), reference molecule, 7 concentrations) was determined as 4 nM.
In the case of `[Cl-].[Cl-].[Mg+2]` [MgCl2, magnesium chloride], the “% inhibition of TNF-alpha secretion induced by PMA” value (“% inhibition … by PMA” for short) in the assay with TNF-alpha (10^-3 M) worked out at 70%; with TNF-alpha (10^-4 M) it was 12%.
For `O=[N+]([O-])[O-].O=[N+]([O-])[O-].[Ca+2]` [Ca(NO3)2, calcium nitrate], the “inhibitory activity on the release of substance P” value is reported as “does not have any activity at all” in the assay on substance P (Table 1, salts at 1 μmol) and “has no activity at all” with substance P (Table 2, strontium salts 1 μmol, calcium salt 10 μmol).
Turning to `[Cl-].[Cl-].[Sr+2]` [SrCl2, strontium chloride], in the assay with substance P (Table 1), the “% inhibition relative to the control” value is 37% and the “μg/ml of Evans blue” value is 5.13 ± 0.9 µg/mL. The “% inhibition relative to the control” value in the assay on substance P (Table 2) worked out at 57%.
With `O=[N+]([O-])[O-].O=[N+]([O-])[O-].[Sr+2]` [Sr(NO3)2, strontium nitrate], the “% inhibition … by PMA” value in the assay on TNF-alpha (10^-3 M) was determined as 75%; in the assay with TNF-alpha (10^-4 M) it was 28%. Besides, the results for the “% inhibition relative to the control” value in the assay with substance P (Table 1) and in the assay on substance P (Table 2) were 41% and 71%, respectively. Besides, in the assay with substance P (Table 1), the “μg/ml of Evans blue” value was 4.84 ± 0.6 µg/mL.
In the case of `[Cl-].[Cl-].[Sr+2]` [SrCl2 7H2 O, strontium chloride], the results for the “% inhibition … by PMA” value in the assay with TNF-alpha (10^-3 M) and with TNF-alpha (10^-5 M) were 54% and 14%, respectively.
Turning to `[Ca+2].[Cl-].[Cl-]` [CaCl2,7H2 O, calcium chloride], the “% inhibition … by PMA” value in the assay with TNF-alpha (10^-3 M) amounted to 67%; in the assay on TNF-alpha (10^-4 M), 22%; in the assay with TNF-alpha (10^-5 M) it was 19%.
